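The compound was tested at five concentrations on cells cultured in 96-well plates, with a 48-hour exposure period. GI50 marks 50% less growth. TGI denotes the concentration required for complete inhibition of growth.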
Columns and labels:
Experiment in all cases: NCI tumour cell line growth inhibition, 48 h
786-0 renal = test system: 786-0 renal
A498 renal = test system: A498 renal
A549 NSCLC = test system: A549 NSCLC
ACHN renal = test system: ACHN renal
BT-549 breast = test system: BT-549 breast
CAKI-1 renal = test system: CAKI-1 renal
CCRF-CEM leukemia = test system: CCRF-CEM leukemia
COLO 205 colon = test system: COLO 205 colon
DU-145 prostate = test system: DU-145 prostate
EKVX NSCLC = test system: EKVX NSCLC
HCC-2998 colon = test system: HCC-2998 colon
HCT-116 colon = test system: HCT-116 colon
HCT-15 colon = test system: HCT-15 colon
HL-60(TB) leukemia = test system: HL-60(TB) leukemia
HOP-62 NSCLC = test system: HOP-62 NSCLC
HOP-92 NSCLC = test system: HOP-92 NSCLC
HS 578T breast = test system: HS 578T breast
HT29 colon = test system: HT29 colon
IGROV1 ovarian = test system: IGROV1 ovarian
K-562 leukemia = test system: K-562 leukemia
KM12 colon = test system: KM12 colon
LOX IMVI melanoma = test system: LOX IMVI melanoma
M14 melanoma = test system: M14 melanoma
MALME-3M melanoma = test system: MALME-3M melanoma
MCF7 breast = test system: MCF7 breast
MDA-MB-231 breast = test system: MDA-MB-231 breast
MDA-MB-435 = test system: MDA-MB-435
MDA-MB-468 breast = test system: MDA-MB-468 breast
MOLT-4 leukemia = test system: MOLT-4 leukemia
NCI-H226 lung = test system: NCI-H226 lung
NCI-H23 lung = test system: NCI-H23 lung
NCI-H460 lung = test system: NCI-H460 lung
NCI-H522 lung = test system: NCI-H522 lung
NCI/ADR-RES ovarian = test system: NCI/ADR-RES ovarian
OVCAR-3 ovarian = test system: OVCAR-3 ovarian
OVCAR-4 ovarian = test system: OVCAR-4 ovarian
OVCAR-5 ovarian = test system: OVCAR-5 ovarian
OVCAR-8 ovarian = test system: OVCAR-8 ovarian
PC-3 prostate = test system: PC-3 prostate
RPMI-8226 leukemia = test system: RPMI-8226 leukemia
RXF 393 renal = test system: RXF 393 renal
SF-268 CNS = test system: SF-268 CNS
SF-295 CNS = test system: SF-295 CNS
SF-539 CNS = test system: SF-539 CNS
SK-MEL-2 melanoma = test system: SK-MEL-2 melanoma
SK-MEL-28 melanoma = test system: SK-MEL-28 melanoma
SK-MEL-5 melanoma = test system: SK-MEL-5 melanoma
SK-OV-3 ovarian = test system: SK-OV-3 ovarian
SN12C renal = test system: SN12C renal
SNB-19 CNS = test system: SNB-19 CNS
SNB-75 CNS = test system: SNB-75 CNS
SR leukemia = test system: SR leukemia
SW-620 colon = test system: SW-620 colon
T-47D breast = test system: T-47D breast
TK-10 renal = test system: TK-10 renal
U251 CNS = test system: U251 CNS
UACC-257 melanoma = test system: UACC-257 melanoma
UACC-62 melanoma = test system: UACC-62 melanoma
UO-31 renal = test system: UO-31 renal

O=C(COc1ccc(NC(=O)Nc2ccc(Cl)cc2)cc1)N=Nc1c(O)[nH]c2ccc([N+](=O)[O-])cc12 was tested, and the GI50 (786-0 renal) was 15.6 µM, the TGI (786-0 renal) was 34.6 µM and the GI50 (A498 renal) was 21.1 µM. For the same molecule, the TGI (A498 renal) was 43.2 µM, the GI50 (A549 NSCLC) was > 100 µM and the TGI (A549 NSCLC) was > 100 µM. The GI50 (ACHN renal) was 26.8 µM, the TGI (ACHN renal) was > 100 µM and the GI50 (BT-549 breast) was 14.2 µM. For the same molecule, the TGI (BT-549 breast) was 29.8 µM, the GI50 (CAKI-1 renal) was 69.7 µM and the TGI (CAKI-1 renal) was > 100 µM. The GI50 (CCRF-CEM leukemia) was 2560 nM, the TGI (CCRF-CEM leukemia) was 8.18 µM and the GI50 (COLO 205 colon) was 5.21 µM. The TGI (COLO 205 colon) was > 100 µM, the GI50 (DU-145 prostate) was 10.3 µM and the TGI (DU-145 prostate) was > 100 µM. The GI50 (EKVX NSCLC) was 22.3 µM, the TGI (EKVX NSCLC) was > 100 µM and the GI50 (HCC-2998 colon) was 6.18 µM. For the same molecule, the TGI (HCC-2998 colon) was > 100 µM, the GI50 (HCT-116 colon) was 3.65 µM and the TGI (HCT-116 colon) was 13.6 µM. For the same molecule, the GI50 (HCT-15 colon) was > 100 µM, the TGI (HCT-15 colon) was > 100 µM and the GI50 (HL-60(TB) leukemia) was > 100 µM. For the same molecule, the TGI (HL-60(TB) leukemia) was > 100 µM, the GI50 (HOP-62 NSCLC) was 14.3 µM and the TGI (HOP-62 NSCLC) was 30.6 µM. For the same molecule, the GI50 (HOP-92 NSCLC) was 3.01 µM, the TGI (HOP-92 NSCLC) was 12.4 µM and the GI50 (HS 578T breast) was 2960 nM. For the same molecule, the TGI (HS 578T breast) was 15.8 µM, the GI50 (HT29 colon) was 6.81 µM and the TGI (HT29 colon) was > 100 µM. For the same molecule, the GI50 (IGROV1 ovarian) was 13.6 µM, the TGI (IGROV1 ovarian) was 30.7 µM and the GI50 (K-562 leukemia) was 8.47 µM. For the same molecule, the TGI (K-562 leukemia) was > 100 µM, the GI50 (KM12 colon) was 1950 nM and the TGI (KM12 colon) was 11 µM. For the same molecule, the GI50 (LOX IMVI melanoma) was 3.21 µM, the TGI (LOX IMVI melanoma) was 11.5 µM and the GI50 (M14 melanoma) was 5.83 µM. The TGI (M14 melanoma) was > 100 µM, the GI50 (MALME-3M melanoma) was 2600 nM and the TGI (MALME-3M melanoma) was 8.74 µM. For the same molecule, the GI50 (MCF7 breast) was 2060 nM, the TGI (MCF7 breast) was 6.36 µM and the GI50 (MDA-MB-231 breast) was 2840 nM. The TGI (MDA-MB-231 breast) was 9.44 µM, the GI50 (MDA-MB-435) was 3.7 µM and the TGI (MDA-MB-435) was 20.5 µM. For the same molecule, the GI50 (MDA-MB-468 breast) was 1980 nM, the TGI (MDA-MB-468 breast) was 4.82 µM and the GI50 (MOLT-4 leukemia) was 5.25 µM. For the same molecule, the TGI (MOLT-4 leukemia) was > 100 µM, the GI50 (NCI-H226 lung) was 4.12 µM and the TGI (NCI-H226 lung) was 24.2 µM. For the same molecule, the GI50 (NCI-H23 lung) was 5.79 µM, the TGI (NCI-H23 lung) was 18.3 µM and the GI50 (NCI-H460 lung) was 3.07 µM. The TGI (NCI-H460 lung) was 33.9 µM, the GI50 (NCI-H522 lung) was 2400 nM and the TGI (NCI-H522 lung) was 8.03 µM. For the same molecule, the GI50 (NCI/ADR-RES ovarian) was > 100 µM, the TGI (NCI/ADR-RES ovarian) was > 100 µM and the GI50 (OVCAR-3 ovarian) was 2250 nM. The TGI (OVCAR-3 ovarian) was 6.58 µM, the GI50 (OVCAR-4 ovarian) was 3.95 µM and the TGI (OVCAR-4 ovarian) was 24.8 µM. The GI50 (OVCAR-5 ovarian) was 24 µM, the TGI (OVCAR-5 ovarian) was > 100 µM and the GI50 (OVCAR-8 ovarian) was 12.7 µM. For the same molecule, the TGI (OVCAR-8 ovarian) was > 100 µM, the GI50 (PC-3 prostate) was 6.59 µM and the TGI (PC-3 prostate) was > 100 µM. The GI50 (RPMI-8226 leukemia) was 7.3 µM, the TGI (RPMI-8226 leukemia) was > 100 µM and the GI50 (RXF 393 renal) was 5.69 µM. For the same molecule, the TGI (RXF 393 renal) was 26.8 µM, the GI50 (SF-268 CNS) was 4.81 µM and the TGI (SF-268 CNS) was 18.7 µM. It also gave a GI50 (SF-295 CNS) of 16.5 µM, a TGI (SF-295 CNS) of 34 µM and a GI50 (SF-539 CNS) of 3.36 µM. For the same molecule, the TGI (SF-539 CNS) was 15.3 µM, the GI50 (SK-MEL-2 melanoma) was 7.09 µM and the TGI (SK-MEL-2 melanoma) was 20.3 µM. The GI50 (SK-MEL-28 melanoma) was 2490 nM, the TGI (SK-MEL-28 melanoma) was 7.97 µM and the GI50 (SK-MEL-5 melanoma) was 12.4 µM. The TGI (SK-MEL-5 melanoma) was > 100 µM, the GI50 (SK-OV-3 ovarian) was 21.6 µM and the TGI (SK-OV-3 ovarian) was 55.8 µM. For the same molecule, the GI50 (SN12C renal) was 4.74 µM, the TGI (SN12C renal) was 23.9 µM and the GI50 (SNB-19 CNS) was 10.1 µM. The TGI (SNB-19 CNS) was 23.6 µM, the GI50 (SNB-75 CNS) was 4.82 µM and the TGI (SNB-75 CNS) was 24.2 µM. The GI50 (SR leukemia) was 18 µM, the TGI (SR leukemia) was > 100 µM and the GI50 (SW-620 colon) was 3.34 µM. The TGI (SW-620 colon) was > 100 µM, the GI50 (T-47D breast) was 4 µM and the TGI (T-47D breast) was 30.2 µM. The GI50 (TK-10 renal) was 23.7 µM, the TGI (TK-10 renal) was 59.7 µM and the GI50 (U251 CNS) was 6.42 µM. For the same molecule, the TGI (U251 CNS) was 19.6 µM, the GI50 (UACC-257 melanoma) was 20.1 µM and the TGI (UACC-257 melanoma) was > 100 µM. The GI50 (UACC-62 melanoma) was 6.99 µM, the TGI (UACC-62 melanoma) was 26.6 µM and the GI50 (UO-31 renal) was > 100 µM. For the same molecule, the TGI (UO-31 renal) was > 100 µM.

Reference: PubChem BioAssay (NCI)
